Holding throughout (test): inhibition of tumour cell growth, NCI panel, 48 h
Assay [1] relates to K-562 leukemia.
Assay [2] relates to DU-145 prostate.
Assay [3] deals with SW-620 colon.
For assay [4], the system named is MOLT-4 leukemia.
Assay [5] relates to LOX IMVI melanoma.
The subject of assay [6] is U251 CNS.
Assay [7] has as its system IGROV1 ovarian.
For assay [8], the system named is A498 renal.
The subject of assay [9] is SN12C renal.
Assay [10] has as its system MDA-MB-231 breast.
The test system of assay [11] is M14 melanoma.

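Method: 48-hour compound exposure of cells in 96-well plates, five concentrations, linear interpolation of endpoints. TGI marks complete inhibition of growth.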 A value given as a limit tells only on which side of the number the result lay.

For the compound `O=C(NC(Nc1ccc(F)c(Cl)c1)(C(F)(F)F)C(F)(F)F)C(C(F)(F)F)C(F)(F)F`, the TGI is 77.1 µM in [1]; over 100 µM in assay [2]; over 100 µM in assay [3]; 57 µM in [4]; 29.9 µM in assay [5]; over 100 µM in assay [6]. Moreover, the TGI in assay [7] was 33.4 µM; in assay [8], over 100 µM; in assay [9], over 100 µM; in assay [10], 78.9 µM; in [11], over 100 µM.
For the compound `Nc1c(C(=O)c2ccccc2)[nH]c(NCc2ccccc2)c1C(=S)Nc1ccccc1`, the TGI in [1], in assay [2], in [3], in assay [4], in [5] and in assay [6] was over 100 µM in each case. Moreover, the TGI in assay [7], in [8], in assay [9], in [10] and in assay [11] was over 100 µM throughout.
Regarding `CC1OC(=O)c2ccccc2NC1=O` (stereo not given), the TGI in assay [1], in assay [2], in assay [3], in assay [4], in assay [5] and in [6] was over 100 µM each time. Besides, the TGI in assay [7], in assay [8], in assay [9], in assay [10] and in [11] was over 100 µM in each case.
Take `CCC(=O)NCCc1c[nH]c2ccc(OC)cc12`: the TGI in assay [1], in [2], in assay [3], in [4], in assay [5] and in [6] was over 100 µM throughout. Also, the TGI in assay [7], in assay [8], in assay [9], in assay [10] and in [11] was over 100 µM throughout.
For `CC(Cc1ccc(O)c(O)c1)C(C)Cc1ccc(O)c(O)c1` (stereo not given), the TGI in [1] was over 62.7 µM; in assay [2] it was 46.4 µM; in [3] it was 49.9 µM; in assay [4] it was over 62.5 µM; in [5] it was 38.8 µM; in assay [6], 38.9 µM. For the same compound, the TGI in [7] is 33.6 µM; in [8], 90.1 µM; in assay [9], over 51.6 µM; in [10], over 57 µM; in assay [11] it was 34 µM.
Regarding `Clc1nc2c(-c3cccs3)ncnc2n1Cc1ccccc1`, the TGI in assay [1] is over 100 µM; in assay [2] it was 6.18 µM; in [3] it was over 70.5 µM; in assay [4] it was over 100 µM; in assay [5], over 100 µM; in [6] it was over 100 µM. For the same compound, the TGI in assay [7] is over 100 µM; in assay [8], 55.6 µM; in assay [9], over 100 µM; in assay [10], over 81.5 µM; in assay [11], over 100 µM.
Turning to `CSc1c(C#N)c2n(c3ccccc3[n+]2C)c2ncccc12`, the TGI was over 100 µM in [1]; 47.2 µM in assay [2]; over 100 µM in assay [3]; over 100 µM in [4]; 34.1 µM in assay [5]; 70.8 µM in assay [6]. Moreover, the TGI in [7] is over 100 µM; in assay [8], 84.6 µM; in assay [9], 67.5 µM; in [10], 46.9 µM; in [11], 52.6 µM.
Consider `O=C1OC(CN2CCN(c3ccccc3)CC2)CN1C(=S)Nc1ccccc1` (stereo not given), for which the TGI in [1], in [2], in assay [3], in assay [4], in assay [5] and in assay [6] was over 100 µM throughout. Besides, the TGI in [7], in assay [8], in assay [9], in assay [10] and in assay [11] was over 100 µM each time.
For `CSC(=NCCN=C(NS(=O)(=O)c1ccc(Cl)cc1)SC)NS(=O)(=O)c1ccc(Cl)cc1`, the TGI in assay [1] was over 100 µM; in [2], over 100 µM; in assay [3], over 100 µM; in [4], over 100 µM; in assay [5] it was over 100 µM; in assay [6], 42.6 µM. The TGI in [7], in [8], in assay [9], in [10] and in assay [11] was over 100 µM in each case.
For `O=C(C1OC1c1ccc([N+](=O)[O-])cc1)C12CC3CC(CC(C3)C1)C2` (stereo not given), the TGI was 33.5 µM in assay [1]; 46.2 µM in assay [2]; 56 µM in assay [3]; 49.3 µM in assay [4]; 4.19 µM in assay [5]; 24.6 µM in assay [6]. Further, the TGI in [7] is 34.6 µM; in [8], 35.7 µM; in assay [9] it was 29.7 µM; in [10] it was 34.8 µM; in [11], 30.1 µM.
On to `CC(C)[Si](OC1=CCCCCC12C(=O)N(C)c1ccccc12)(C(C)C)C(C)C` (stereo not given), for which the TGI in [1] is over 100 µM; in assay [2] it was 29.9 µM; in assay [3], 35.6 µM; in assay [4], over 100 µM; in [5], 35.7 µM; in assay [6], 36.3 µM. The TGI in assay [7] was determined as 62.9 µM; in assay [8], 42.8 µM; in [10], 54.8 µM; in assay [11], 49.2 µM.
On to `O=C(NCc1ccccc1)c1cnc(Cl)cn1`, for which the TGI in assay [2], in assay [3], in assay [4], in assay [5], in assay [6] and in [7] was over 100 µM each time. The TGI in assay [8], in [9], in assay [10] and in assay [11] was over 100 µM each time.
Take `CSCCCCCCCCCCOc1ccc(C=C2C(=C(C#N)C#N)c3ccccc3C2=C(C#N)C#N)cc1`: the TGI in [1] is over 100 µM; in assay [2], 28.9 µM; in assay [3], 37.8 µM; in assay [4] it was 64.5 µM; in assay [5], 61.7 µM; in [6], 31.2 µM. The TGI in [7] was 34.7 µM; in [8], 33.1 µM; in assay [10], 35.7 µM; in assay [11], 32.1 µM.

The values are drawn from PubChem BioAssay (NCI).
